Experiments:
[1] = ABTS+ scavenging activity; conditions: 10 min, 734 nm
Description: The ABTS•+ assay (2, 2′-azino-bis (3-ethylbenzthiazoline-6-sulfonic acid)) was carried out according to the method with some modifications. The ABTS+ reagent was prepared as follows: 19.2 mg of ABTS (7 mM) in 5 mL distilled water was mixed with 3.3 mg of Potassium persulfate K2S2O8 (2.45 mM) in 5 mL distilled water, and the mixture was incubated for 16 h in the dark before use. We have added 160 µL of ABTS+ reagent to 40 μL of extract solutions. After 10 min of incubation, the absorbance was read at 734 nm using a microplate reader of type PerkinElmer (Enspire). BHA and BHT were used as references. The total antioxidant activity of the extracts was calculated as follows:(4) ABTS^+scavenging effect (%)=AControl−ASample/AControl×100
(§1) The results of the tests carried out are expressed as an average ± SD of analyses in three tests. The values of IC50 (50% inhibition concentration) and A0.5 (the concentration indicating 0.50 absorbance) are calculated using the linear regression method from the two curves: [% inhibition = f (concentration)] for IC50 and [Absorbance = f (concentration)] for A0.5. All the antioxidant and enzymatic tests were carried out at more than four concentration values. The one-way analysis of variance ANOVA was used to detect significant differences (p < 0.05).

[2] = DPPH radical scavenging assay; conditions: 30 min, 517 nm
Description: The ability of radical scavenging was determined according to [118], using the radical DPPH• (2,2-diphenyl-1-picrylhydrazyl). 160 µL of DPPH solution (0.15 mM) was added to 40 µL of the diluted extracts in methanol and incubated in the dark. After 30 min of incubation, the absorbances were measured at 517 nm by a microplate reader of type PerkinElmer (Enspire) against a blank. BHA, BHT, and α-tocopherol were used as reference antioxidants. DPPH inhibition percentage was calculated using the following equation:(3) Inhibition(%)=A0−As/A0×100 where A0 is the absorbance of the control (without the sample) and As is the absorbance of the tested samples. The antioxidant activity of the extracts and standards was expressed as IC50 (the concentration of the tested samples that inhibits 50% of DPPH radicals).
as §1

[3] = Ferric-reducing antioxidant power (FRAP) assay; conditions: concentration indicating 0.50 absorbance, 700 nm; maximum tested 200 µg/mL
Description: The ferric-reducing antioxidant power (FRAP) assay was carried out according to [119]. The reaction mixture contained 10 μL of the extracts, 40 µL phosphate buffer (pH 6.6), and 50 μL potassium ferricyanide K3[Fe (CN)6] (1%), was incubated at 50 °C for 20 min, then 50 µL of trichloroacetic acid (TCA) (10%) and 40 µL of distilled water and 10 µL of ferric chloride FeCl3 (0.1%) were added. Then, the absorbance was measured at 700 nm using a microplate reader of type PerkinElmer (Enspire) against a blank. Tannic acid, α-tocopherol, and ascorbic acid were used as references.
The results of the tests carried out are expressed as an average ± SD of analyses in three tests. […] The one-way analysis of variance ANOVA was used to detect significant differences (p < 0.05).

Molecule | ABTS Inhibition IC50 [1] [µg/mL] | DPPH Inhibition IC50 [2] [µg/mL] | FRAP A0.5 [3] [µg/mL]
COc1ccc(O)c(C(C)(C)C)c1 [BHA, Butylated hydroxyanisole] | 1.81 ± 0.10 | 6.14 ± 0.41 | –
Cc1cc(C(C)(C)C)c(O)c(C(C)(C)C)c1 [BHT, hydroxytoluene] | 1.29 ± 0.30 | 12.99 ± 0.41 | –
Tannic acid | – | – | 5.39 ± 0.91
O=C1O[C@H]([C@@H](O)CO)C(O)=C1O [Ascorbic acid] | – | – | 6.77 ± 1.15
